From PubChem BioAssay (NCI)
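How tested: cells in 96-well plates exposed to compound for 48 hours at five concentrations. GI50: concentration for 50% inhibition of growth. TGI denotes the concentration required for complete inhibition of growth.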

What was measured:
Assay in all cases: growth of human tumour cells (NCI), 48 h
786-0 renal = system: 786-0 renal
A498 renal = system: A498 renal
A549 NSCLC = system: A549 NSCLC
ACHN renal = system: ACHN renal
BT-549 breast = system: BT-549 breast
CAKI-1 renal = system: CAKI-1 renal
CCRF-CEM leukemia = system: CCRF-CEM leukemia
COLO 205 colon = system: COLO 205 colon
DU-145 prostate = system: DU-145 prostate
EKVX NSCLC = system: EKVX NSCLC
HCC-2998 colon = system: HCC-2998 colon
HCT-116 colon = system: HCT-116 colon
HCT-15 colon = system: HCT-15 colon
HL-60(TB) leukemia = system: HL-60(TB) leukemia
HOP-62 NSCLC = system: HOP-62 NSCLC
HOP-92 NSCLC = system: HOP-92 NSCLC
HS 578T breast = system: HS 578T breast
HT29 colon = system: HT29 colon
IGROV1 ovarian = system: IGROV1 ovarian
K-562 leukemia = system: K-562 leukemia
KM12 colon = system: KM12 colon
LOX IMVI melanoma = system: LOX IMVI melanoma
M14 melanoma = system: M14 melanoma
MALME-3M melanoma = system: MALME-3M melanoma
MCF7 breast = system: MCF7 breast
MDA-MB-231 breast = system: MDA-MB-231 breast
MDA-MB-435 = system: MDA-MB-435
MOLT-4 leukemia = system: MOLT-4 leukemia
NCI-H226 lung = system: NCI-H226 lung
NCI-H23 lung = system: NCI-H23 lung
NCI-H460 lung = system: NCI-H460 lung
NCI-H522 lung = system: NCI-H522 lung
NCI/ADR-RES ovarian = system: NCI/ADR-RES ovarian
OVCAR-3 ovarian = system: OVCAR-3 ovarian
OVCAR-4 ovarian = system: OVCAR-4 ovarian
OVCAR-8 ovarian = system: OVCAR-8 ovarian
PC-3 prostate = system: PC-3 prostate
RPMI-8226 leukemia = system: RPMI-8226 leukemia
RXF 393 renal = system: RXF 393 renal
SF-268 CNS = system: SF-268 CNS
SF-295 CNS = system: SF-295 CNS
SF-539 CNS = system: SF-539 CNS
SK-MEL-2 melanoma = system: SK-MEL-2 melanoma
SK-MEL-28 melanoma = system: SK-MEL-28 melanoma
SK-MEL-5 melanoma = system: SK-MEL-5 melanoma
SK-OV-3 ovarian = system: SK-OV-3 ovarian
SN12C renal = system: SN12C renal
SNB-19 CNS = system: SNB-19 CNS
SNB-75 CNS = system: SNB-75 CNS
SR leukemia = system: SR leukemia
SW-620 colon = system: SW-620 colon
T-47D breast = system: T-47D breast
TK-10 renal = system: TK-10 renal
U251 CNS = system: U251 CNS
UACC-257 melanoma = system: UACC-257 melanoma
UACC-62 melanoma = system: UACC-62 melanoma
UO-31 renal = system: UO-31 renal

## O=C1C=CC2(NN=C(c3ccccc3)N2c2ccccc2)c2cccc(O)c21 (centres undefined)
786-0 renal
  GI50: 6.13 µM
  TGI: 43 µM
A498 renal
  GI50: 5.52 µM
  TGI: 19.6 µM
A549 NSCLC
  GI50: 1.84 µM
  TGI: 5 µM
ACHN renal
  GI50: 3.11 µM
  TGI: 21.5 µM
BT-549 breast
  GI50: 1.13 µM
  TGI: 2.69 µM
CAKI-1 renal
  GI50: 5.71 µM
  TGI: 50.3 µM
CCRF-CEM leukemia
  GI50: 4.83 µM
  TGI: > 100 µM
COLO 205 colon
  GI50: 1.89 µM
  TGI: 3.83 µM
DU-145 prostate
  GI50: 1.27 µM
  TGI: 2.56 µM
EKVX NSCLC
  GI50: 1.41 µM
  TGI: 14.5 µM
HCC-2998 colon
  GI50: 3.83 µM
  TGI: 13 µM
HCT-116 colon
  GI50: 1.38 µM
  TGI: 5.26 µM
HCT-15 colon
  GI50: 0.472 µM
  TGI: 2.37 µM
HL-60(TB) leukemia
  GI50: 2.77 µM
  TGI: 8.03 µM
HOP-62 NSCLC
  GI50: 0.693 µM
  TGI: 2.22 µM
HOP-92 NSCLC
  GI50: 22.8 µM
  TGI: 54.2 µM
HS 578T breast
  GI50: 2.86 µM
  TGI: 7.63 µM
HT29 colon
  GI50: 2.53 µM
  TGI: 6.21 µM
IGROV1 ovarian
  GI50: 3.19 µM
  TGI: 17.1 µM
K-562 leukemia
  GI50: 1.6 µM
  TGI: 21 µM
KM12 colon
  GI50: 2.65 µM
  TGI: 18 µM
LOX IMVI melanoma
  GI50: 0.275 µM
  TGI: 1.28 µM
M14 melanoma
  GI50: 1.3 µM
  TGI: 2.6 µM
MALME-3M melanoma
  GI50: 1.28 µM
  TGI: 2.58 µM
MCF7 breast
  GI50: 1.5 µM
  TGI: 3.83 µM
MDA-MB-231 breast
  GI50: 2.37 µM
  TGI: 33.9 µM
MDA-MB-435
  GI50: 0.185 µM
  TGI: 0.336 µM
MOLT-4 leukemia
  GI50: 6.81 µM
  TGI: > 100 µM
NCI-H226 lung
  GI50: 1.83 µM
  TGI: 4.53 µM
NCI-H23 lung
  GI50: 0.46 µM
  TGI: 2.18 µM
NCI-H460 lung
  GI50: 2.56 µM
  TGI: 10.2 µM
NCI-H522 lung
  GI50: 1.21 µM
  TGI: 3.4 µM
NCI/ADR-RES ovarian
  GI50: 1.62 µM
  TGI: 30.9 µM
OVCAR-3 ovarian
  GI50: 1.08 µM
  TGI: 3.7 µM
OVCAR-4 ovarian
  GI50: 0.698 µM
  TGI: 3.21 µM
OVCAR-8 ovarian
  GI50: 2.4 µM
  TGI: > 100 µM
PC-3 prostate
  GI50: 3.19 µM
  TGI: > 100 µM
RPMI-8226 leukemia
  GI50: 3.52 µM
  TGI: > 100 µM
RXF 393 renal
  GI50: 7.36 µM
  TGI: 25 µM
SF-268 CNS
  GI50: 1.84 µM
  TGI: 14.3 µM
SF-295 CNS
  GI50: 1.34 µM
  TGI: 3.18 µM
SF-539 CNS
  GI50: 1.26 µM
  TGI: 2.79 µM
SK-MEL-2 melanoma
  GI50: 4.6 µM
  TGI: 21.5 µM
SK-MEL-28 melanoma
  GI50: 1.99 µM
  TGI: 4.38 µM
SK-MEL-5 melanoma
  GI50: 0.272 µM
  TGI: 0.706 µM
SK-OV-3 ovarian
  GI50: 11.8 µM
  TGI: 98 µM
SN12C renal
  GI50: 1.47 µM
  TGI: 2.84 µM
SNB-19 CNS
  GI50: 1.59 µM
  TGI: 10.8 µM
SNB-75 CNS
  GI50: 1.82 µM
  TGI: 3.44 µM
SR leukemia
  GI50: 4.38 µM
  TGI: 76.9 µM
SW-620 colon
  GI50: 1.67 µM
  TGI: 3.64 µM
T-47D breast
  GI50: 4.88 µM
  TGI: 37.7 µM
TK-10 renal
  GI50: 5.46 µM
  TGI: 46 µM
U251 CNS
  GI50: 0.587 µM
  TGI: 20.2 µM
UACC-257 melanoma
  GI50: 1.47 µM
  TGI: 2.93 µM
UACC-62 melanoma
  GI50: 1.05 µM
  TGI: 2.26 µM
UO-31 renal
  GI50: 1.46 µM
  TGI: 7.67 µM
